According to PubChem BioAssay (NCI):
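All cell lines were grown in 96-well plates and treated with compound for 48 hours. TGI marks complete inhibition of growth.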

Columns and labels:
Assay in all cases: NCI tumour cell line growth inhibition, 48 h
SR leukemia = tested on: SR leukemia
HOP-18 NSCLC = tested on: HOP-18 NSCLC
RXF-631 renal = tested on: RXF-631 renal
SNB-78 CNS = tested on: SNB-78 CNS
KM20L2 colon = tested on: KM20L2 colon
DMS 114 small cell lung = tested on: DMS 114 small cell lung
DMS 273 small cell lung = tested on: DMS 273 small cell lung
M19-MEL melanoma = tested on: M19-MEL melanoma
LXFL 529 NSCLC = tested on: LXFL 529 NSCLC
DLD-1 colon = tested on: DLD-1 colon
XF 498 CNS = tested on: XF 498 CNS

CC1(C)CCCC2(C)C3=C(CCC12)C(=O)OC3 (stereo not drawn)
TGI (SR leukemia): > 100 µM

CCOc1cc(/C=N\O)cc(/C=N/O)c1O
TGI (SR leukemia): > 100 µM

NC(CCCNc1ccc(O)cc1)C(=O)O (stereo not drawn)
TGI (HOP-18 NSCLC): > 100 µM | TGI (RXF-631 renal): > 100 µM | TGI (SNB-78 CNS): > 100 µM | TGI (KM20L2 colon): > 100 µM | TGI (DMS 114 small cell lung): 54.1 µM | TGI (DMS 273 small cell lung): > 100 µM | TGI (M19-MEL melanoma): 32.7 µM | TGI (LXFL 529 NSCLC): 33.3 µM | TGI (SR leukemia): 55.8 µM | TGI (DLD-1 colon): 42.6 µM | TGI (XF 498 CNS): 38.2 µM

Nc1c(C(=O)c2ccc(Cl)cc2)[nH]c(Nc2ccc(Cl)cc2)c1C(=S)Nc1ccccc1
TGI (SR leukemia): 7.41 µM

CSC1=NC(=O)CCN1C1OCC(OC(C)=O)C(OC(C)=O)C1OC(C)=O (stereo not drawn)
TGI (SR leukemia): > 31.6 µM

C[C@]12CCC(=O)C=C1CC[C@@H]1[C@@H]2CC[C@]2(C)C(=O)/C(=C/c3ccncc3)C[C@@H]12
TGI (SR leukemia): 27.1 µM

CCOC(=O)c1ccc(OCc2nc3cc(C(F)(F)F)ccc3nc2-c2ccccc2)cc1
TGI (SR leukemia): > 100 µM

O=C1C(=Cc2cccc(Cl)c2)N=C(c2ccccc2)N1n1c(-c2ccccc2)nc2ccccc2c1=O
TGI (SR leukemia): > 100 µM

NCc1ccc(O)c(O)c1O
TGI (HOP-18 NSCLC): > 100 µM | TGI (SNB-78 CNS): > 100 µM | TGI (KM20L2 colon): > 80.9 µM | TGI (DMS 114 small cell lung): 42.8 µM | TGI (DMS 273 small cell lung): 31 µM | TGI (M19-MEL melanoma): 26.9 µM | TGI (LXFL 529 NSCLC): 30.6 µM | TGI (SR leukemia): 62 µM | TGI (DLD-1 colon): 37.2 µM | TGI (XF 498 CNS): 56.4 µM

COc1cc(/C=C2/CCCc3ccccc3C2=O)cc(OC)c1OC
TGI (SR leukemia): > 39.2 µM

O=C1CC2(CCN(CC3COc4ccccc4O3)CC2)C(=O)N1N1CCCCCC1 (stereo not drawn)
TGI (SR leukemia): > 100 µM

C=CC(C)CCC(C/C=C(\C)CCCC(C)C)C(=C)CCCC(C)C (stereo not drawn)
TGI (SR leukemia): > 100 µM

COc1c(C(=O)/C(=N/Nc2cccc(Cl)c2)C(C)=O)c(O)c(OC)c2occc12
TGI (SR leukemia): > 100 µM

Cn1cc(S(=O)(=O)NC(=O)Nc2ccc(Cl)cc2)c(=O)c2ccc(Cl)cc21
TGI (SR leukemia): > 100 µM

O=C1c2ccccc2-c2nc(-c3cccs3)cc3c2c1nc1ccccc13
TGI (SR leukemia): 34.5 µM

CCCCCCCCCCCCCCCCC(=O)NCC(=O)NCC(=O)NC(Cc1ccccc1)C(=O)Oc1ccc([N+](=O)[O-])cc1 (stereo not drawn)
TGI (SR leukemia): 51.3 µM

S=C(Nc1ccc(Cl)cc1)c1ccc(CN2CCCCC2)s1
TGI (SR leukemia): 19.5 µM

SCc1ccc(-c2ccc(CS)cc2)cc1
TGI (HOP-18 NSCLC): 30.9 µM | TGI (SNB-78 CNS): 51 µM | TGI (KM20L2 colon): 53 µM | TGI (DMS 114 small cell lung): 25.6 µM | TGI (DMS 273 small cell lung): 58.4 µM | TGI (M19-MEL melanoma): 35.7 µM | TGI (LXFL 529 NSCLC): 28.7 µM | TGI (SR leukemia): 5.79 µM | TGI (DLD-1 colon): 34.1 µM | TGI (XF 498 CNS): 36.6 µM

CSc1ccc(/C=C/C(=O)c2nc3ccccc3[nH]2)cc1
TGI (SR leukemia): 6.56 µM

O=C1CC(C(O)C(O)C(O)CO)CC(=O)N1 (stereo not drawn)
TGI (SR leukemia): > 100 µM

CCOP(=O)(OCC)c1cc2cc(O)ccc2oc1=O
TGI (SR leukemia): > 100 µM

O=C(O)c1[nH]c(=O)[nH]c(=O)c1CN1CCCCC1
TGI (SR leukemia): > 100 µM

CC(=O)OC(=C(C#N)C#N)c1nccnc1C(=O)O
TGI (SR leukemia): > 100 µM

O=S(Nc1ccccc1)c1ccccc1Oc1ccccc1 (stereo not drawn)
TGI (SR leukemia): > 100 µM

CC(/C=C/c1ccccc1)=N\N=C(C)\C=C\c1ccccc1
TGI (SNB-78 CNS): > 100 µM | TGI (KM20L2 colon): > 100 µM | TGI (DMS 273 small cell lung): > 100 µM | TGI (M19-MEL melanoma): > 100 µM | TGI (LXFL 529 NSCLC): > 100 µM | TGI (SR leukemia): > 100 µM | TGI (DLD-1 colon): > 100 µM | TGI (XF 498 CNS): > 100 µM

Nc1nc(Cl)cc(NCC2(CO)CC(CCCc3ccccc3)C2)n1 (stereo not drawn)
TGI (SR leukemia): > 100 µM

O=c1[nH]c(=S)n(-c2cccc3ccccc23)c(O)c1/C=C1\C=Nc2ccccc21
TGI (SR leukemia): 4.04 µM

COC(=O)C12OCC34C(CC5C(C)C6=CC(=O)OC6=CC5(C)C3C(O)C1O)OC(=O)C(OC(C)=O)C24 (stereo not drawn)
TGI (HOP-18 NSCLC): 27.9 µM | TGI (RXF-631 renal): 33.9 µM | TGI (SNB-78 CNS): 48.7 µM | TGI (KM20L2 colon): 33.3 µM | TGI (DMS 114 small cell lung): 35.4 µM | TGI (DMS 273 small cell lung): 30.2 µM | TGI (M19-MEL melanoma): 40.9 µM | TGI (LXFL 529 NSCLC): 31.5 µM | TGI (SR leukemia): 64.6 µM | TGI (DLD-1 colon): 25.3 µM | TGI (XF 498 CNS): 25.4 µM
